From ChEMBL document CHEMBL4190165 (Medchemcomm, 2016)

Tests used:
[1] = Inhibition of Saccharomyces cerevisiae PP30 HSP82 expressed in Escherichia coli BL21(DE3)pLysS by PK/LDH coupled spectrophotometric assay
[2] = Binding affinity to yeast Hsp90 by isothermal titration calorimetric method; set-up: species or system Saccharomyces cerevisiae

IC50 [1] | Kd [2] | Structure (SMILES)
20 to 23 nM | 19 nM | C[C@@H]1C[C@H]2O[C@@H]2/C=C\C=C\C(=O)Cc2c(Cl)c(O)cc(O)c2C(=O)O1 [RADICICOL]
1000 to 5000 nM | 1200 nM | COC1=C2C[C@@H](C)C[C@H](OC)[C@H](O)[C@@H](C)/C=C(\C)[C@H](OC(N)=O)[C@@H](OC)/C=C\C=C(/C)C(=O)NC(=CC1=O)C2=O [GELDANAMYCIN]
